Measured values as given in patent US20240398784A1, “C-LINKED ISOQUINOLINE AMIDES AS LRRK2 INHIBITORS, PHARMACEUTICAL COMPOSITIONS, AND USES THEREOF” (Merck Sharp & Dohme LLC, priority 2021, published 2024).

Target: LRRK2 G2019S (Homo sapiens, UniProt Q5S007, G2019S)
Test: LRRK2 G2019S Km ATP LanthaScreen assay
Format: biochemical
Conditions: read-out: LRRK2 pIC50 (converted)
Method: Unless otherwise noted, all reactions are magnetically stirred. Unless otherwise noted, when diethyl ether is used in the experiments described below, it is Fisher ACS certified material and is stabilized with BHT. Unless otherwise noted, “concentrated” and/or “solvent removed under reduced pressure” means evaporating the solvent from a solution or mixture using a rotary evaporator or vacuum pump. Unless otherwise noted, flash chromatography is carried out on a Teledyne Isco (Lincoln, NE), Analogix (Burlington, WI), or Biotage (Stockholm, SWE) automated chromatography system using a commercially available cartridge as the column. Columns may be purchased from Teledyne Isco, Analogix, Biotage, Varian (Palo Alto, CA), or Supelco (Bellefonte, PA) and are usually filled with silica gel as the stationary phase. Reverse phase prep-HPLC conditions, where used, can be found at the end of each experimental section. Aqueous solutions were concentrated on a Genevac (Ipswich, ENG) or by freeze-drying/lyophilization.

Chain of LRRK2 G2019S (Q5S007 whole entry G2019S): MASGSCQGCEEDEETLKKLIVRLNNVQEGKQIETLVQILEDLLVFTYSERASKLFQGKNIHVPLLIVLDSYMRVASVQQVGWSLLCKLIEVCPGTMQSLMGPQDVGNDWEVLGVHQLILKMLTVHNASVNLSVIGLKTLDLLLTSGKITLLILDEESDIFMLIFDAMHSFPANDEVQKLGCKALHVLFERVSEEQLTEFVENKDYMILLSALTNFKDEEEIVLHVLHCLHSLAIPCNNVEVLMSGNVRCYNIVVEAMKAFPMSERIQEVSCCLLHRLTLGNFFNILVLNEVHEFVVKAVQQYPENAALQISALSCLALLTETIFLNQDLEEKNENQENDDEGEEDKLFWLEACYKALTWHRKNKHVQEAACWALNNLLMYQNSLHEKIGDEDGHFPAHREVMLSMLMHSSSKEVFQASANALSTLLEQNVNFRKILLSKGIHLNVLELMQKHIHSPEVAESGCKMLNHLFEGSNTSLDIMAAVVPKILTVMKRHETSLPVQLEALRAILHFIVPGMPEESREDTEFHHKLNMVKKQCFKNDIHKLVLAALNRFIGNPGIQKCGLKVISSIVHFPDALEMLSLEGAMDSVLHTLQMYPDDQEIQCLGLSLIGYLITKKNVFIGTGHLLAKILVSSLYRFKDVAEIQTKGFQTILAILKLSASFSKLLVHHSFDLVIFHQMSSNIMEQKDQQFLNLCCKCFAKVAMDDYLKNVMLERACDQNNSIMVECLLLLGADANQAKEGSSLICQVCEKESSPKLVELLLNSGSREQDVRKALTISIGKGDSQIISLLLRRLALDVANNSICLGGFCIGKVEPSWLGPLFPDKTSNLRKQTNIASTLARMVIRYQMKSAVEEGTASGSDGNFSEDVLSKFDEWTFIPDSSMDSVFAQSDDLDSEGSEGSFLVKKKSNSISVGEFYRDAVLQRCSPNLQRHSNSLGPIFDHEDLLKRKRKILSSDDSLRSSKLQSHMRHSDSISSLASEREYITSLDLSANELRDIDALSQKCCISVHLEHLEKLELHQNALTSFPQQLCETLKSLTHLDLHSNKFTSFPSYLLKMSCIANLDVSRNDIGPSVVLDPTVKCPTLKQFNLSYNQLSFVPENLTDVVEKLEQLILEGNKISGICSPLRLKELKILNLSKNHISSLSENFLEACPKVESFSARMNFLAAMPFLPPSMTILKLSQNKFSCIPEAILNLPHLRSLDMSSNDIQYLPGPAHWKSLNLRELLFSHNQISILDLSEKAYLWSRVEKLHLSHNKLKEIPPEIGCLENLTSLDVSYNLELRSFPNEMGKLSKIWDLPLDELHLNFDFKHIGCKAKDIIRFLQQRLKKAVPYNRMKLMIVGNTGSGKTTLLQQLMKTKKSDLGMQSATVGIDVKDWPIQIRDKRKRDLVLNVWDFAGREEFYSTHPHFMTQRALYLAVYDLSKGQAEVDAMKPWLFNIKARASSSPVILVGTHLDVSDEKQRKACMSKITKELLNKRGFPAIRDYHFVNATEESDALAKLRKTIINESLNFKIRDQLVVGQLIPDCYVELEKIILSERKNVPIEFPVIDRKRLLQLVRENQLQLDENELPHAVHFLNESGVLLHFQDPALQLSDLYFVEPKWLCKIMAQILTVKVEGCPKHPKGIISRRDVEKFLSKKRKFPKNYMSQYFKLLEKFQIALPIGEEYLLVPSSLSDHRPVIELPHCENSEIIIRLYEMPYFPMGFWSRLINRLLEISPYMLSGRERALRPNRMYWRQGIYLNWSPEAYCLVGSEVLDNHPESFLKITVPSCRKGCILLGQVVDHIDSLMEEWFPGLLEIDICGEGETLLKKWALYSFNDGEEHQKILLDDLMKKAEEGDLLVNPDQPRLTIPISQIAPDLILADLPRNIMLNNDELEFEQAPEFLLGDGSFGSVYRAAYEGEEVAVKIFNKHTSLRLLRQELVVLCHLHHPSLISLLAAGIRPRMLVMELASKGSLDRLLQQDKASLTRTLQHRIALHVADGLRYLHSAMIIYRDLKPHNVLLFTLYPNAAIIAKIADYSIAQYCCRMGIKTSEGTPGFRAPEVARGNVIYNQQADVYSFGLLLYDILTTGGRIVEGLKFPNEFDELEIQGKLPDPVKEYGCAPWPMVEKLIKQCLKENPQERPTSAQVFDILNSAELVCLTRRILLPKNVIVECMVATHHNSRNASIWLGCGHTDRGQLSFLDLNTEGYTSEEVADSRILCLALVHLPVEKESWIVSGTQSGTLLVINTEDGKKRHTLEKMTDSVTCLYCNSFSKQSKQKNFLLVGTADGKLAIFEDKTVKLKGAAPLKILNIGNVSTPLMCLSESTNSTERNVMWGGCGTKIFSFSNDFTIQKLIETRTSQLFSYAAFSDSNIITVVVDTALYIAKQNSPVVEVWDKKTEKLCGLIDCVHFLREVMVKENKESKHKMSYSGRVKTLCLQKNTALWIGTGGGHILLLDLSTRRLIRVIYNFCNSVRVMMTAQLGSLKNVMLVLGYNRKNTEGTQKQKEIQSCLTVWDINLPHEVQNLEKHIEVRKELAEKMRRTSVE

SMILES	IC50
CCOC1CC2(C1)CC2C(=O)Nc1cc2cc(C3CCN(C4(C)COCC4O)CC3)c(Cl)cc2cn1 (single isomer, unassigned) [Ex-4.29, N-(7-chloro-6-(1-(4-hydroxy-3-methyltetrahydrofuran-3-yl)piperidin-4-yl)isoquinolin-3-yl)-5-ethoxyspiro[2.3]hexane-1-carboxamide]	7.94 nM
CC(C)(F)C1CC1C(=O)Nc1cc2cc(C3CCN(C4(C)COCC4O)CC3)c(Cl)cc2cn1 (single isomer, unassigned) [Ex-4.48, N-(7-chloro-6-(1-(4-hydroxy-3-methyltetrahydrofuran-3-yl)piperidin-4-yl)isoquinolin-3-yl)-2-(2-fluoropropan-2-yl)cyclopropane-1-carboxamide]	1.26 nM
O=C(Nc1cc2cc(C3CCN(C4COC4)CC3)c(Cl)cc2cn1)c1cocn1 [Ex-1.38, N-(7-chloro-6-(1-(oxetan-3-yl)piperidin-4-yl)isoquinolin-3-yl)oxazole-4-carboxamide]	11.5 nM
Cc1cc2cnc(NC(=O)C3CC3C(F)F)cc2cc1C1CCN(C2(C)COCC2O)CC1 (stereo not drawn) [Ex-2.56]	1.58 nM
O=C(Nc1cc2cc(C3CCN(C4COC4)CC3)c(Cl)cc2cn1)C1CC12CC2 (single isomer, unassigned) [Ex-9.2]	1.45 nM
CC1CC1C(=O)Nc1cc2cc(C3CCN(C4COC4)CC3)c(Cl)cc2cn1 (single isomer, unassigned) [Ex-9.5, N-(7-chloro-6-(1-(oxetan-3-yl)piperidin-4-yl)isoquinolin-3-yl)-2-methylcyclopropane-1-carboxamide]	1.1 nM
CN(C)C1CCC2C(C(=O)Nc3cc4cc(C5CCN(C6(C)COCC6O)CC5)c(Cl)cc4cn3)C21 (single isomer, unassigned) [Ex-4.27, N-(7-chloro-6-(1-(4-hydroxy-3-methyltetrahydrofuran-3-yl)piperidin-4-yl)isoquinolin-3-yl)-2-(dimethylamino)bicyclo[3.1.0]hexane-6-carboxamide]	2.57 nM
COC1COCC1(C)N1CCC(c2cc3cc(NC(=O)C4CC45CCOCC5)ncc3cc2Cl)CC1 (single isomer, unassigned) [Ex-6.22, N-(7-chloro-6-(1-(4-methoxy-3-methyltetrahydrofuran-3-yl)piperidin-4-yl)isoquinolin-3-yl)-6-oxaspiro[2.5]octane-1-carboxamide]	0.0813 nM
CC1(N2CCC(c3cc4cc(NC(=O)C5CC5C5CCOCC5)ncc4cc3Cl)CC2)COCC1O (single isomer, unassigned) [Ex-4.67, N-(7-chloro-6-(1-(4-hydroxy-3-methyltetrahydrofuran-3-yl)piperidin-4-yl)isoquinolin-3-yl)-2-(tetrahydro-2H-pyran-4-yl)cyclopropane-1-carboxamide]	0.0813 nM
Cc1cc2cnc(NC(=O)C3CC34CCOC4)cc2cc1C1CCN(C2(C)COCC2F)CC1 (single isomer, unassigned) [Ex-15.7, N-(6-(1-(4-fluoro-3-methyltetrahydrofuran-3-yl)piperidin-4-yl)-7-methylisoquinolin-3-yl)-5-oxaspiro[2.4]heptane-1-carboxamide]	1.23 nM
CC1(N2CCC(c3cc4cc(NC(=O)c5cnn(C67CC(C6)C7)c5)ncc4cc3Cl)CC2)COCC1O (single isomer, unassigned) [Ex-1.52, 1-(bicyclo[1.1.1]pentan-1-yl)-N-(7-chloro-6-(1-((3R,4R or 3S,4S)-4-hydroxy-3-methyltetrahydrofuran-3-yl)piperidin-4-yl)isoquinolin-3-yl)-1H-pyrazole-4-carboxamide]	1.62 nM
CC1(C)CC(C(=O)Nc2cc3cc(C4(C#N)CC45CC5)ccc3cn2)CCO1 (stereo not drawn) [Ex-2.58]	11.2 nM
CC1(N2CCC(c3cc4cc(NC(=O)Cn5cc(Cl)cn5)ncc4cc3Cl)CC2)COCC1O (stereo not drawn) [Ex-3.9]	0.977 nM
Cc1cc2cnc(NC(=O)C3CC3c3ccccn3)cc2cc1C1CCN(C2(C)COCC2O)CC1 (single isomer, unassigned) [Ex-4.77, N-(6-(1-(4-hydroxy-3-methyltetrahydrofuran-3-yl)piperidin-4-yl)-7-methylisoquinolin-3-yl)-2-(pyridin-2-yl)cyclopropane-1-carboxamide]	5.62 nM
O=C(Nc1cc2cc(C3CCC(N4CC(F)(F)C4)CC3)c(Cl)cc2cn1)C1CC1c1ccccn1 (single isomer, unassigned) [Ex-5.6, N-(7-chloro-6-(4-(3,3-difluoroazetidin-1-yl)cyclohexyl)isoquinolin-3-yl)-2-(pyridin-2-yl)cyclopropane-1-carboxamide]	912 nM
CC1(N2CCC(c3cc4cc(NC(=O)C5CC5c5cccnc5)ncc4cc3Cl)CC2)COCC1O (single isomer, unassigned) [Ex-4.41, N-(7-chloro-6-(1-(4-hydroxy-3-methyltetrahydrofuran-3-yl)piperidin-4-yl)isoquinolin-3-yl)-2-(pyridin-3-yl)cyclopropane-1-carboxamide]	45.7 nM
O=C(Nc1cc2cc(C3CCOCC3)c(Cl)cc2cn1)C1CC12CCOCC2 (stereo not drawn) [Ex-7.10, N-(7-chloro-6-(tetrahydro-2H-pyran-4-yl)isoquinolin-3-yl)-6-oxaspiro[2.5]octane-1-carboxamide]	2.75 nM
CC(C(=O)Nc1cc2cc(C3(C#N)CC34CC4)ccc2cn1)c1cnn(C)c1 (stereo not drawn) [Ex-2.109]	1.91 nM
O=C(Nc1cc2cc(C3CCN(C4COCC4O)CC3)c(Cl)cc2cn1)C1CC12CCOCC2 (single isomer, unassigned) [Ex-4.2, (R or S)-N-(7-chloro-6-(1-((3R,4R or 3R, 4R)-4-hydroxytetrahydrofuran-3-yl)piperidin-4-yl)isoquinolin-3-yl)-6-oxaspiro[2.5]octane-1-carboxamide]	2.82 nM
CC1(N2CCC(c3cc4cc(NC(=O)C5CC5c5cncnc5)ncc4cc3Cl)CC2)COCC1O (single isomer, unassigned) [Ex-4.36, N-(7-chloro-6-(1-(4-hydroxy-3-methyltetrahydrofuran-3-yl)piperidin-4-yl)isoquinolin-3-yl)-2-(pyrimidin-5-yl)cyclopropane-1-carboxamide]	0.562 nM
Cc1cc2cnc(NC(=O)C3CC3c3cnn(C)c3)cc2cc1C1CC12CC2 (single isomer, unassigned) [Ex-16.3, 2-(1-methyl-1H-pyrazol-4-yl)-N-(7-methyl-6-(spiro[2.2]pentan-1-yl)isoquinolin-3-yl)cyclopropane-1-carboxamide]	10.5 nM
Cc1cc2cnc(NC(=O)C3CC3c3ccn(C)n3)cc2cc1C1CCN(C2(C)COCC2F)CC1 (single isomer, unassigned) [Ex-16.1]	0.0813 nM
O=C(Nc1cc2cc(C3C4CCOCC43)c(Cl)cc2cn1)C1CC12CCOCC2 (single isomer, unassigned) [Ex-9.23, N-(6-(3-oxabicyclo[4.1.0]heptan-7-yl)-7-chloroisoquinolin-3-yl)-6-oxaspiro[2.5]octane-1-carboxamide]	19.1 nM
Cc1cc2cnc(NC(=O)C3CC34CCOC4)cc2cc1C1CCN(C2(C)COCC2F)CC1 (single isomer, unassigned) [Ex-15.14, N-(6-(1-(4-fluoro-3-methyltetrahydrofuran-3-yl)piperidin-4-yl)-7-methylisoquinolin-3-yl)-5-oxaspiro[2.4]heptane-1-carboxamide]	3.72 nM
